Experimental findings from PMC7059199, “Identification and structural insight of an effective PPARγ modulator with improved therapeutic index for anti-diabetic drug discovery” (Chemical Science, 2020) are described below.

For one series, the target named is T1, full-length hPPARγ (Homo sapiens, UniProt P37231).
T1 construct: 50 ng of full-length hPPARγ plasmids; expressed in transfected cells; host or cells: Cos-7 cells (ATCC)
T1 sequence (P37231 1-505): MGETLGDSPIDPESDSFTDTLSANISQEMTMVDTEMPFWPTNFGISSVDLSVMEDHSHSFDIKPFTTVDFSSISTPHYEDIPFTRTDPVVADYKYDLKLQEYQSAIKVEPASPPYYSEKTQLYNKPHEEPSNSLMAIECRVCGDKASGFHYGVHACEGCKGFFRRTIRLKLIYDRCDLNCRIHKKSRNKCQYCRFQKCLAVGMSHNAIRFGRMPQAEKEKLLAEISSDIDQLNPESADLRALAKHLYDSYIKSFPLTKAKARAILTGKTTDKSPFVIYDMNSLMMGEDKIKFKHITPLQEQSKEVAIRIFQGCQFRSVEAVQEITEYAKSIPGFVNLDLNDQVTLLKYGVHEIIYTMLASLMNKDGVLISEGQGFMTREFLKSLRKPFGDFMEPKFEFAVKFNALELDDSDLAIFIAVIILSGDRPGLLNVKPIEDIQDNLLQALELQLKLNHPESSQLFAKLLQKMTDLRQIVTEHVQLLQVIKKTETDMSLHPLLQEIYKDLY
Put plainly: PPARγ-activated luciferase reporter (transactivation) assay in Cos-7 cells. It is filed as cell-based. Particulars: at 33 μM and 100 μM. The method, then: Fig. 3 Luciferase reporter assay of PPARγ activation in Cos-7 cells. The luciferase activity was normalized against renilla luciferase units. Fold activation was calculated against DMSO with no ligand treatment. […] Concentration is represented as log10 scale (n = 3, error bars = SEM). […]
and 25 mM of imidazole) per 6 liters of cells, and passed three times through a French press with pressure set at […]. The lysate was cleared by centrifugation at 48,000 x g for 30 minutes and the supernatant was purified by loading on 2x5 mL HiLoad Nickel HP columns (GE Healthcare). The 6×His SUMO tag was removed by cleavage with the Sumo protease Ulp1 at a protease: protein ratio of 1:1000), and the tag was separated from the PPARγ LBD by a second pass through the Nickel column. PPARγ monomer was further purified by gel filtration (HiLoad 26/60 Superdex 200 (GE Healthcare)) with 20 mM of Tris (pH 8.0), 100 mM of NaCl, and 5 mM of DTT as buffer. The PPARγ LBD protein was complexed with PGC1α1 peptide […]
([…]) at a 1:1.2 molar ratio and with compound at a 1:5 molar ratio and then filter-concentrated to 10 mg/mL.
Cell-based transactivation assay […]
Excitation of the terbium at 340 nm results in FRET to the fluorescent tracer, with emissions detected at 520 nm and 495 nm. […]
The inhibition constant (ki) for a competitor was calculated by applying the […]

The test system of another series is HFD mice. As to the kind of experiment: Anti-diabetic activity in high-fat diet (HFD) mice, 10 days. The format is in vivo, C57BL/6J mice.
For the next series, the target named is T2, PPARα (Homo sapiens, UniProt Q07869).
T2 sequence (Q07869 1-468): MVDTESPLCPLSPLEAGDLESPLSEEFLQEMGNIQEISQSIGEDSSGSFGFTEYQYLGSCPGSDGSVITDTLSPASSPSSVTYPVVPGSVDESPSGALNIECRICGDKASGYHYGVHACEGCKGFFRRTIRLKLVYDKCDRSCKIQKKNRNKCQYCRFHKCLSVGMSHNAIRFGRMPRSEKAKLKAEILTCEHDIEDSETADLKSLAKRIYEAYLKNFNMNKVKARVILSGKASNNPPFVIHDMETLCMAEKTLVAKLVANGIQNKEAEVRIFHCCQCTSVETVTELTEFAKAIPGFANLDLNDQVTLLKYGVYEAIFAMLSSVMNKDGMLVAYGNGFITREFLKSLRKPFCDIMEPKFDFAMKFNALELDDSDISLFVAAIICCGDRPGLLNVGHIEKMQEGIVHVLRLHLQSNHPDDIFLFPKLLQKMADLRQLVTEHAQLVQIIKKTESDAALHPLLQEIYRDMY
As to the kind of experiment: Competitive TR-FRET assay, PPARα. Conditions: even at 100 μM. In general terms: In TR-FRET formats the signal depends on donor and acceptor labels being close together.

Take `CCCCCCCC(OCC(=O)O)c1ccc(Cl)cc1` (stereo not shown) [VSP-77]: the “agonistic activity (fold activation of luciferase reporter)” value on full-length hPPARγ is recorded as “weakly agonistic”. Also, the “expression of key adipogenesis-related genes in adipose tissue” value with HFD mice is on record as “does not induce”. Moreover, in the series on HFD mice (5 mg/kg i.p.), the “Cdk5-mediated phosphorylation of PPARγ at Ser-273 in adipose tissue” value is reported as “decrease”; the “body weight and food intake compared to vehicle-treated mice” value is reported as “without significant differences”; the “expression of glut4 and adiponectin in adipose tissue” value is on record as “selectively induced”; the fasting insulin levels entry is on record as “significant reduction”. Further, in the series with HFD mice (5 mg/kg i.p.), the glucose levels entry is listed as “lowered”; the “insulin resistance (HOMA-IR)” value is “clear and dose-dependent improvement”; the “organ / fat weight” value was “selectively decreased subcutaneous and perirenal fats”. Moreover, the “effect on PPARα (in words)” value at PPARα is on record as “no obvious effects”.
